Experimental data published in patent publication US10246411B2, “(Z)-3,4,5-trimethoxystyrylbenzenesulfonamides as potential anticancer agents” (COUNCIL OF SCIENTIFIC & INDUSTRIAL RESEARCH, priority 2014, dated 2019).
Where two headings read alike, the source gives them in different places.

How the values were obtained:
NCI-H23 = test: In vitro cytotoxicity (NCI protocol, SRB), NCI-H23; conditions: Homo sapiens, NCI-H23, 48 h
HCC-2998 = test: In vitro cytotoxicity (NCI protocol, SRB), HCC-2998; conditions: Homo sapiens, HCC 2998, 48 h
PC-3 = test: In vitro cytotoxicity (NCI protocol, SRB), PC-3; conditions: Homo sapiens, PC-3, 48 h
UO-31 = test: In vitro cytotoxicity (NCI protocol, SRB), UO-31; conditions: Homo sapiens, UO-31, 48 h
A498 = test: In vitro cytotoxicity (NCI protocol, SRB), A498; conditions: Homo sapiens, A498, 48 h
human tumor cell lines = test: In vitro cytotoxicity (NCI protocol, SRB), whole panel / mean graph midpoints; assay type: cell-based; conditions: for GI50: Homo sapiens; for Log10GI50 mean graph mid point (MG_MID) / Log10LC50 mean graph mid point (MG_MID) / Log10TGI mean graph mid point (MG_MID): mean over human tumor cell lines
From the text: The mean graph midpoint values of Log10 TGI and Log10 LC50 as well as Log10 GI50 for compounds 17a, 17c, 13a, 13c and 12a is listed in Table-2. […] The mean graph midpoints of Log10 TGI and Log10 LC50 have shown similar pattern to the log10 GI50 mean graph mid points.

KM12 = test: In vitro cytotoxicity (NCI protocol, SRB), KM12; conditions: Homo sapiens, KM12, 48 h
HT29 = test: In vitro cytotoxicity (NCI protocol, SRB), HT29; conditions: Homo sapiens, HT-29, 48 h
CAKI-1 = test: In vitro cytotoxicity (NCI protocol, SRB), CAKI-1; conditions: Homo sapiens, CAKI-1, 48 h
SNB -19 = test: In vitro cytotoxicity (NCI protocol, SRB), SNB -19; conditions: Homo sapiens, SNB-19, 48 h
HCT-116 = test: In vitro cytotoxicity (NCI protocol, SRB), HCT-116; conditions: Homo sapiens, HCT-116, 48 h
MCF7 = test: In vitro cytotoxicity (NCI protocol, SRB), MCF7; conditions: Homo sapiens, MCF7, 48 h
ACHN = test: In vitro cytotoxicity (NCI protocol, SRB), ACHN; conditions: Homo sapiens, 48 h
SNB -75 = test: In vitro cytotoxicity (NCI protocol, SRB), SNB -75; conditions: Homo sapiens, SNB-75, 48 h
SK-MEL-28 = test: In vitro cytotoxicity (NCI protocol, SRB), SK-MEL-28; conditions: Homo sapiens, SK-MEL-28, 48 h
RPMI-8226 = test: In vitro cytotoxicity (NCI protocol, SRB), RPMI-8226; conditions: Homo sapiens, RPMI-8226, 48 h
SK-MEL-2 = test: In vitro cytotoxicity (NCI protocol, SRB), SK-MEL-2; conditions: Homo sapiens, SK-MEL-2, 48 h
K-562 = test: In vitro cytotoxicity (NCI protocol, SRB), K-562; conditions: Homo sapiens, K562, 48 h
SW-620 = test: In vitro cytotoxicity (NCI protocol, SRB), SW-620; conditions: Homo sapiens, SW-620, 48 h
NCI-H522 = test: In vitro cytotoxicity (NCI protocol, SRB), NCI-H522; conditions: Homo sapiens, NCI-H522, 48 h
SK-MEL-5 = test: In vitro cytotoxicity (NCI protocol, SRB), SK-MEL-5; conditions: Homo sapiens, SK-MEL-5, 48 h
HOP92 = test: In vitro cytotoxicity (NCI protocol, SRB), HOP92; conditions: Homo sapiens, HOP-92, 48 h
CCRF-CEM = test: In vitro cytotoxicity (NCI protocol, SRB), CCRF-CEM; conditions: Homo sapiens, 48 h
HCT-15 = test: In vitro cytotoxicity (NCI protocol, SRB), HCT-15; conditions: Homo sapiens, HCT-15, 48 h
OVCAR-3 = test: In vitro cytotoxicity (NCI protocol, SRB), OVCAR-3; conditions: Homo sapiens, OVCAR-3, 48 h
SK-OV-3 = test: In vitro cytotoxicity (NCI protocol, SRB), SK-OV-3; conditions: Homo sapiens, SK-OV-3, 48 h
A549/ATCC = test: In vitro cytotoxicity (NCI protocol, SRB), A549/ATCC; conditions: Homo sapiens, A549, 48 h
T-47D = test: In vitro cytotoxicity (NCI protocol, SRB), T-47D; conditions: Homo sapiens, T47D, 48 h
[1] = against all the cancer cell lines, read-out: GI50 values range
[2] = against fifty eight cell lines in nine cancer cell panels, read-out: GI50 values
[3] = against almost 50 above cancer cell lines
[4] = against almost all tumor cell lines, read-out: GI50 values

Structure (SMILES) | GI50 (NCI-H23) [nM] | GI50 (HCC-2998) [nM] | GI50 (PC-3) [nM] | GI50 (UO-31) [nM] | GI50 (A498) [nM] | GI50 (human tumor cell lines; [2]) [nM] | Log10GI50 mean graph mid point (MG_MID) (human tumor cell lines) | Log10LC50 mean graph mid point (MG_MID) (human tumor cell lines) | Log10TGI mean graph mid point (MG_MID) (human tumor cell lines) | GI50 (KM12) [nM] | GI50 (HT29) [nM] | GI50 (CAKI-1) [nM] | GI50 (SNB -19) [nM] | GI50 (HCT-116) [nM] | GI50 (MCF7) [nM] | GI50 (ACHN) [nM] | GI50 (SNB -75) [nM] | GI50 (RPMI-8226) [nM] | GI50 (SK-MEL-2) [nM] | GI50 (K-562) [nM] | other results
COc1ccc(S(=O)(=O)Nc2cc(/C=C\c3cc(OC)c(OC)c(OC)c3)ccc2OC)cc1 [12a, (Z)-4-methoxy-N-(2-methoxy-5-(3,4,5-trimethoxystyryl)phenyl)benzenesulfonamide] | 480 | 442 | 124 | 131 | 35.3 | 20 to 50 | −6.86 | −4.06 | −4.49 | 73.8 | 81 | 51.5 | 352 | 79.7 | 42.6 | 58.7 | 70.8 | 319 | 80.3 | 53 | GI50 (human tumor cell lines; [1]): 18 to 50 nM; cytotoxicity (human tumor cell lines; [3]): significant cytotoxicity; GI50 (SK-MEL-28): 143 nM; GI50 (SW-620): 78.5 nM; GI50 (NCI-H522): 20.4 nM; GI50 (SK-MEL-5): 48.8 nM; GI50 (HOP92): 97.4 nM; GI50 (CCRF-CEM): 176 nM; GI50 (HCT-15): 62.3 nM; GI50 (OVCAR-3): 52.8 nM; GI50 (SK-OV-3): 96.3 nM; GI50 (A549/ATCC): 159 nM
COc1ccc(S(=O)(=O)Nc2cc(/C=C\c3cc(OC)c(OC)c(OC)c3)cc(OC)c2OC)cc1 [13a, (Z)—N-(2,3-dimethoxy-5-(3,4,5-trimethoxystyryl)phenyl)-4-methoxybenzenesulfonamide] | 59.3 | 39.1 | 38 | 63.6 | 21.7 | 20 to 50 | −7.2 | −4.07 | −4.55 | 39.7 | 33.1 | 53.1 | 60.1 | 35 | 36 | 57 | 26.5 | 45.9 | 37.4 | 27.2 | GI50 (human tumor cell lines; [1]): 18 to 50 nM; GI50 (human tumor cell lines; [4]): < 50 nM; cytotoxicity (human tumor cell lines; [3]): significant cytotoxicity; GI50 (SK-MEL-28): 76.5 nM; GI50 (T-47D): 5210 nM; GI50 (SW-620): 43.9 nM; GI50 (NCI-H522): 19.7 nM; GI50 (SK-MEL-5): 35.9 nM; GI50 (HOP92): 1750 nM; GI50 (CCRF-CEM): 32.9 nM; GI50 (HCT-15): 35.8 nM; GI50 (OVCAR-3): 34.5 nM; GI50 (SK-OV-3): 37.8 nM; GI50 (A549/ATCC): 47.4 nM
COc1cc(/C=C\c2cc(OC)c(OC)c(OC)c2)cc(NS(=O)(=O)c2ccc(Cl)cc2)c1OC [13c, (Z)-4-chloro-N-(2,3-dimethoxy-5-(3,4,5-trimethoxystyryl)phenyl)benzenesulfonamide] | 710 | 1980 | 395 | 696 | 179 | 20 to 50 | −6.27 | −4.03 | −4.42 | 572 | 348 | 374 | 745 | 469 | 375 | 586 | 227 | 387 | 613 | 306 | cytotoxicity (human tumor cell lines; [3]): significant cytotoxicity; GI50 (SK-MEL-28): 1140 nM; GI50 (T-47D): 381 nM; GI50 (SW-620): 343 nM; GI50 (NCI-H522): 209 nM; GI50 (SK-MEL-5): 297 nM; GI50 (HOP92): 720 nM; GI50 (CCRF-CEM): 388 nM; GI50 (HCT-15): 399 nM; GI50 (OVCAR-3): 364 nM; GI50 (SK-OV-3): 449 nM; GI50 (A549/ATCC): 716 nM
COc1ccc(S(=O)(=O)Nc2c(/C=C\c3cc(OC)c(OC)c(OC)c3)ccc(OC)c2O)cc1 [17a, (Z)—N-(2-hydroxy-3-methoxy-6-(3,4,5-trimethoxystyryl)phenyl)-4-methoxybenzenesulfonamide] | 52 | 31.6 | 40.8 | 61.9 | 18.8 | 20 to 50 | −7.17 | −4.05 | −4.55 | 35.5 | 1400 | 51.6 | 60.2 | 32 | 38 | 61.3 | 25.5 | 46.9 | 43.7 | 28.6 | GI50 (human tumor cell lines; [1]): 18 to 50 nM; GI50 (human tumor cell lines; [4]): < 50 nM; cytotoxicity (human tumor cell lines; [3]): significant cytotoxicity; GI50 (SW-620): 40.8 nM; GI50 (NCI-H522): 20.2 nM; GI50 (SK-MEL-5): 36.3 nM; GI50 (HOP92): 1600 nM; GI50 (CCRF-CEM): 30.1 nM; GI50 (HCT-15): 36.6 nM; GI50 (OVCAR-3): 33.9 nM; GI50 (SK-OV-3): 29.6 nM; GI50 (A549/ATCC): 45.9 nM
COc1ccc(/C=C\c2cc(OC)c(OC)c(OC)c2)c(NS(=O)(=O)c2ccc(Cl)cc2)c1O [17c, (Z)-4-chloro-N-(2-hydroxy-3-methoxy-6-(3,4,5-trimethoxystyryl)phenyl)benzenesulfonamide] | 288 | 429 | 153 | 73.9 | 22.9 | 20 to 50 | −6.71 | −4.07 | −4.66 | 127 | 2760 | 54.2 | 807 | 114 | 38.4 | 83.8 | 33.1 | 207 | 65.9 | 32.3 | cytotoxicity (human tumor cell lines): significant cytotoxicity; GI50 (human tumor cell lines; [1]): 18 to 50 nM; GI50 (SK-MEL-28): 84.1 nM; GI50 (SW-620): 69.4 nM; GI50 (NCI-H522): 84.8 nM; GI50 (SK-MEL-5): 51 nM; GI50 (HOP92): 2360 nM; GI50 (CCRF-CEM): 159 nM; GI50 (HCT-15): 53 nM; GI50 (OVCAR-3): 60.2 nM; GI50 (SK-OV-3): 229 nM; GI50 (A549/ATCC): 270 nM
